From patent publication US4342752A, “Carbalkoxymethyl derivatives of rutin poly(H-)sulfate and method of use” (American Cyanamid Company, priority 1981, dated 1982)
Where “and” joins values, the source holds several entries; their conditions need not be identical. Identical values can stand only once. Counter-ions that a name gives are not always drawn. Like-named read-outs stand apart in the source and are kept apart here.

Key:
activated human C1 = molecular target: T1, activated human C1 (Homo sapiens, UniProt P09871); test: Test Code 026 (C1 inhibitor); type: biochemical; settings: twofold serial dilutions; higher well number indicates higher activity
T1 sequence (P09871 438-688 limits assumed): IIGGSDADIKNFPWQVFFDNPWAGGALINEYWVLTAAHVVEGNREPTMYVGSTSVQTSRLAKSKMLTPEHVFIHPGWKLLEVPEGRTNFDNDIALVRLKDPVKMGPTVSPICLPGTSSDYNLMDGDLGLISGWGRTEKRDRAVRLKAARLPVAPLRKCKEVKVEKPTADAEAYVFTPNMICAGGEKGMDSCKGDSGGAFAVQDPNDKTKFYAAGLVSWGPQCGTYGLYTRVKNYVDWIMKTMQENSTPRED
T1 sequence (P09871 16-437 limits assumed): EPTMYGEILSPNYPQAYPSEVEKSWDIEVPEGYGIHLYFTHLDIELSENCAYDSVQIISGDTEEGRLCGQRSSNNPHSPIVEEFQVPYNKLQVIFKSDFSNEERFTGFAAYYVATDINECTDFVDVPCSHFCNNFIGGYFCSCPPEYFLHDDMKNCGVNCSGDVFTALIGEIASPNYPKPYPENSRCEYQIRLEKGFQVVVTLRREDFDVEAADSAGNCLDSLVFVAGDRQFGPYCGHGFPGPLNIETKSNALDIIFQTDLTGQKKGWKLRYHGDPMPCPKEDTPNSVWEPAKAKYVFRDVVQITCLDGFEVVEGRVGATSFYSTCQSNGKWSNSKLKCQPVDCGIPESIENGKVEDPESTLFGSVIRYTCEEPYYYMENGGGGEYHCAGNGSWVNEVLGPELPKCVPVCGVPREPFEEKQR
Procedure: (§1) An active inhibitor protects C2 from C1 and C4; (ii) Cap 50 Test--Here, appropriate amounts of the test compound are added to a pool of guinea pig serum in vitro, after which the undiluted serum capillary tube assay referred to above is run. The concentration of compound inhibiting 50% is reported; and (iii) Guinea Pig Intraperitoneal Test (GPIP)--Guinea pigs weighing about 300 g. are dosed intraperitoneally (i.p.) with 200 mg./kg. of the test compound dissolved in saline and adjusted to pH 7-8. Approximately 0.4 ml. blood samples, taken by orbital sinus puncture 30 minutes and one hour after injections, are collected directly into centrifuge tubes; 5 ml. blood samples, taken by decapitation 2 hours after injection are collected directly into beakers. The samples are allowed to clot, centrifuged, and the resultant sera are assayed for complement activity using the capillary complement assay. Percent inhibition are calculated by comparison with simultaneous controls.

[1] = tested on: complement activity of sera; test: Guinea Pig Intraperitoneal Test (GPIP); settings: Cavia porcellus, ip, 200 mg./kg. i.p., read-out: In Vivo Activity (Guinea Pig) Intraperitoneal % Inhibition
Procedure: as §1, with “[…],” for “taken by orbital sinus puncture 30 minutes and one hour after injections,”, “taken by decapitation 2 hours after injection are collected directly into” left out

In vitro Activity 026 (activity in wells, serial dilution assay) (activated human C1): 12 wells and 10 wells
Compound: CCOC(=O)COc1cc(OS(=O)(=O)O)c2c(=O)c(O[C@@H]3O[C@H](CO[C@@H]4O[C@@H](C)[C@H](OS(=O)(=O)O)[C@@H](OS(=O)(=O)O)[C@H]4OS(=O)(=O)O)[C@@H](OS(=O)(=O)O)[C@H](OS(=O)(=O)O)[C@H]3OS(=O)(=O)O)c(-c3ccc(OS(=O)(=O)O)c(OS(=O)(=O)O)c3)oc2c1 [7-O-Carbethoxymethyl-rutin nona(H-sulfate)sodium salt]
inhibition at 200 mg/kg ([1]; Time 2 hours): 39% | inhibition at 200 mg/kg ([1]; Time 6 hours): 43% | inhibition at 200 mg/kg ([1]; Time 24 hours): 55%
